{
  "source": "patent US8309766B2",
  "about": "(Obschestvo S. Organichennoi Otvetstvennostiyu …, priority 2005, dated 2012)",
  "key": {"[1]": {"system": "carrageenan edema of rat paw", "assay": "Carrageenan edema of rat paw", "format": "in vivo, outbreed white rats", "conditions": "rats; 1% ointment; 4 hours post carrageenan", "experimental": "The tests were conducted on males of outbreed white rats weighing 250-270 grams. The model of carrageenan edema was used which model is described in Winter et al. In: DeRosa M., Giroud J. P. Willoughby D. A. Studies of the mediators of acute inflammatory response induced in rats in different sites by carrageenan and turpentine.//J. Pharmacol. 1971. V. 104. P. 15-29.\n0.1 ml 1% carrageenan solution (SERVA) was subplantarly injected into a right paw of rats. The animals were placed into individual chambers. […] Paw volume was measured using a pletismometer (Ugo Besile) at 4 hours post carrageenan administration. Therapeutic effect of the ointment was assessed by the inhibition degree of inflammatory reaction as compared to an intact left paw of the given animal and to a paw reaction of a control (untreated) group of rats. Inhibition of inflammatory reaction expressed in percent was calculated according to the formula: […]"}, "cyclooxygenase": {"system": "cyclooxygenase", "assay": "In vitro effect on [14C]arachidonic acid metabolism in a cell-free homogenate of murine pulmonary tissue", "format": "biochemical, CBA mice", "conditions": "compound 10^−4 M, 37° C., 30 minutes", "experimental": "Studies of arachidonic acid metabolism was carried out on females CBA mice who where fed a standard vivarium fodder. Animals (mice) were sacrificed, lungs were extracted, homogenized in a glass homogenizer manufactured by the firm “Wheaton” (USA) at 4° C. in 10 volumes of 0.05 M Tris-HCl buffer. Aliquots (0.5 ml) of supernatant were incubated in 0.5 μCi [1-C^14]-arachidonic acid [C^14]-AA, “Amersham”, England; specific activity 50-60 μCi/mmole) at 37° C. for 30 minutes. Non-metabolized [αC^14]-AA and products of metabolism thereof were extracted in 20 volumes of chloroform and methanol mixture (1:1) in extraction efficacy not less than 90% assessed using [C^14]-PGF2α. [C^14]-AA and metabolites thereof were separated and identified using TLC (the plates Kieselgel 60 of the “Merck” firm, Germany) using as an organic phase, the system of solvents (ethylacetate, isooctane, acetic acid, water—110:50:20:100) and labeled standards. Densitometry of autoradiochromograms obtained on the X-ray film X-Omat AR (“Kodak”, USA) and HS 11 (“ORWO”, Germany), was performed on the densiscan KS 3 (“Kipp and Zonnen”, Holland). Quantitative analysis of individual eicosanoids was carried out using radiometry of fractions obtained by high-performance liquid chromatography (the HPLC-system of the “Gilson” form, France; the column ZORBAX C8 of the “Du Pont” firm, USA) and by elution of spots on TLC-plates. The tested compounds were administered at concentration 10^−4 M."}, "mice, forced swimming": {"system": "mice, forced swimming", "assay": "\"Behavioral despair\" test according to Porsolt", "format": "in vivo", "conditions": "50 mg/kg orally", "experimental": "The “behavioral despair” test according to Porsolt [R. D. Porsolt, A. Bertin and M. Jalfre.//in mice: A primary Screening Test for Antidepressants. Arch. Int. Pharmacodyn., 1977, 229, p. 327-336] is a predictive test for drugs with antidepressant action.\nStress state in mice (weighing 27-30 grams) is induced by forced swimming. Animals are placed into a cylinder (height 25 cm, diameter 10 cm) filled to ⅓ with water at temperature 21-23° C. The animals cannot escape from the cylinder by themselves. Following a short time of activity the animals develop a so called “behavioral depression” characterized by hovering of animals, immobilization duration of which can be fixed. The experiment is carried out in two days. One a first day, animals are placed into the cylinder for 15 minutes (pre-test). After removal from water, the animals are dried and preparations under testing are administered. At 24 hours, the preparations are administered again and one hour later the animals are placed into the cylinder for 6 minutes. During first two minutes the animals are actively swimming; during the subsequent four minutes, behavioral depression develops manifested by immobilization (hovering) which is fixed for 4 minutes and is measure in seconds. Compound IX and the reference antidepressant drug Fluoxetin were administered orally at a dose 50 mg/kg."}, "[2]": {"system": "\"acetic contortions\" in mice", "assay": "Analgetic activity on the model \"acetic contortions\"", "format": "in vivo, white mongrel mice", "conditions": "dose 10 mg/kg (table title)", "experimental": "The tests were conducted on males of white mongrel mice weighing 22-24 grams. The specific pain response (“contortions”) were elicited by intraperitoneal administration to mice of 0.75% acetic acid solution. The following signs were taken into consideration: the number of seizure contractions of abdominal muscles accompanied by stretching the hind limbs and sagging the back. Analgetic effect was assessed by decrease in the number of contortions in animals in percent to the control for 15 minutes post administration of acetic acid. The technique of the tests is disclosed in Koster R., Anderson M., de Beer B.//Fed. Proc. 1959. V. 18. P. 412. Compounds under testing were administered intraperitoneally (using a probe) at a dose 10 μg/kg 60 minutes prior to injection of the acid. Diclofenac (10 mg/kg) was used as a reference drug. Analgetic effect was calculated according to the formula: […]\nwherein Ck is the number of contortions in the control group,\nCo is the number of contortions in the test group."}, "\"hot plate\" test in mice": {"system": "\"hot plate\" test in mice", "assay": "Analgetic activity on the model \"hot plate\"", "format": "in vivo, white mongrel mice", "conditions": "10 mg/kg; for response vs control in vivo at 10 mg/kg / change in vivo at 10 mg/kg: Mus musculus; for response vs control in vivo at 10 mg/kg: percent of background, read-out: Latent time of NT (%); for change in vivo at 10 mg/kg: read-out: Analgesia (%)", "experimental": "The tests were conducted on males of white mongrel mice weighing 22-24 grams. The animals were individually placed on a hot plate (manufactured by the firm “Ugo Basile”), a temperature of which remained constant and was equal to 55° C. The following first manifestations of pain reaction were recorded: licking paws, jumping up prior to administration of a substance (background parameters) and 0.5, 1, 2, 3 and 4 hours post administration of a substance. Substances were administered […] (using a probe). A weighed amount of a substance was thoroughly mixed in 0.1 ml Tween 80 until a solution was obtained, then normal saline was added up to a volume of 0.5 ml. Average latent time of nociception threshold (NT) was calculated in every group. The results obtained were expressed in percent of the background values. Analgetic effect (in %) was calculated according to the formula: A−100%=X, wherein A is a background parameter; X is analgetic effect (in %)\nA is (time 0.5 to 4 hours post administration×100%): background time\nAs reference drugs, Analgin (150 mg/kg), Paracetamol (200 mg/kg), Ketorol (10 mg/kg), were used."}},
  "note": "Like-named read-outs stand apart in the source and are kept apart here.",
  "data": [
    {"smiles": "O=C(CCc1ccc(O)cc1)NCCc1ccccc1", "note": "[Compound IX, 3-(p-hydroxyphenyl)-propionylphenylethylamine]", "values": [
      {"measurement": "Edema inhibition (%)", "setting": "[1]", "result": 53.1, "unit": "%"},
      {"measurement": "Paw volume gain (%)", "setting": "[1]", "result": 32.9, "unit": "%"},
      {"measurement": "Prostanoids", "setting": "cyclooxygenase; b308 reads these as % cyclooxygenase inhibition", "result": "−33"},
      {"measurement": "6-keto-PGF1α", "setting": "cyclooxygenase; change", "result": "−30"},
      {"measurement": "AA (arachidonic acid)", "setting": "cyclooxygenase; change", "result": "+47"},
      {"measurement": "PGE2", "setting": "cyclooxygenase; change", "result": "−38"},
      {"measurement": "PGF2α", "setting": "cyclooxygenase; change", "result": "−27"},
      {"measurement": "TXB2", "setting": "cyclooxygenase; change", "result": "−40"},
      {"measurement": "% change from the control", "setting": "mice, forced swimming", "result": "−21", "unit": "%"},
      {"measurement": "immobilization time, M ± m", "setting": "mice, forced swimming; fixed for 4 minutes, control 195.0 ± 10.3", "result": "154.0 ± 11.7", "unit": "s"},
      {"measurement": "inhibition in vivo at 10 mg/kg", "setting": "[2]; Mus musculus, ip, 0.25 h, read-out: Analgetic effect (%)", "result": 68, "unit": "%"},
      {"measurement": "response vs control in vivo at 10 mg/kg", "setting": "[2]; Mus musculus, ip, 0.25 h, read-out: C, % to the control", "result": 32, "unit": "%"},
      {"measurement": "C ± m (the number of contortions for 15 minutes)", "setting": "[2]; 60 minutes prior to acetic acid", "result": "11.8 ± 2.9"},
      {"measurement": "latent time of nociception threshold, M ± m", "setting": "\"hot plate\" test in mice; 30 minutes post administration", "result": "8.4 ± 1.23", "unit": "s"},
      {"measurement": "latent time of nociception threshold, M ± m", "setting": "\"hot plate\" test in mice; 60 minutes post administration", "result": "7.36 ± 1.04", "unit": "s"},
      {"measurement": "latent time of nociception threshold, M ± m", "setting": "\"hot plate\" test in mice; 120 minutes post administration", "result": "9.83 ± 2.52", "unit": "s"},
      {"measurement": "latent time of nociception threshold, M ± m", "setting": "\"hot plate\" test in mice; 240 minutes post administration", "result": "7.72 ± 0.24", "unit": "s"},
      {"measurement": "response vs control in vivo at 10 mg/kg", "setting": "\"hot plate\" test in mice; 0.5 h, 30 minutes", "result": 203, "unit": "%"},
      {"measurement": "change in vivo at 10 mg/kg", "setting": "\"hot plate\" test in mice; 0.5 h, 30 minutes", "result": 103, "unit": "%"},
      {"measurement": "response vs control in vivo at 10 mg/kg", "setting": "\"hot plate\" test in mice; 1 h, 60 minutes", "result": 178, "unit": "%"},
      {"measurement": "change in vivo at 10 mg/kg", "setting": "\"hot plate\" test in mice; 1 h, 60 minutes", "result": 77.8, "unit": "%"},
      {"measurement": "response vs control in vivo at 10 mg/kg", "setting": "\"hot plate\" test in mice; 2 h, 120 minutes", "result": 237, "unit": "%"},
      {"measurement": "change in vivo at 10 mg/kg", "setting": "\"hot plate\" test in mice; 2 h, 120 minutes", "result": 137, "unit": "%"},
      {"measurement": "response vs control in vivo at 10 mg/kg", "setting": "\"hot plate\" test in mice; 4 h, 240 minutes", "result": 186, "unit": "%"},
      {"measurement": "change in vivo at 10 mg/kg", "setting": "\"hot plate\" test in mice; 4 h, 240 minutes", "result": 86.5, "unit": "%"}
    ]}
  ]
}
